Laboratory results from patent US20240239801A1, “PYRIMIDO[5,4,D]PYRIMIDINE COMPOUNDS, COMPOSITIONS COMPRISING THEM AND USES THEREOF” (Université de Montréal, priority 2021, published 2024).

What was measured:
ARAF = biological target: T1, ARAF (Homo sapiens, UniProt P10398); experiment: ARAF kinase activity assay (AlphaLISA p-MEK detection); format: biochemical; settings: Table A
T1 sequence (P10398 310-570 limits assumed): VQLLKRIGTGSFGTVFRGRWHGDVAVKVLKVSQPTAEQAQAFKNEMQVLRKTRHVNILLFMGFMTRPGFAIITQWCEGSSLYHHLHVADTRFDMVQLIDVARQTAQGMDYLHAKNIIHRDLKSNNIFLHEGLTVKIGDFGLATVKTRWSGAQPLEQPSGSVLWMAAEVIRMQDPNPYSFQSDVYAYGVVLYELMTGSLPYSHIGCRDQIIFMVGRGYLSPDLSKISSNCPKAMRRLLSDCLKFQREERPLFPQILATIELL
Description: Compound preparation: solid samples of each substances in 1dram vials were suspended in DMSO (Fisher Scientific) at a stock concentration of 20 mM. Stocks were kept at −20° C. and protected from light. If solubility of the compound at 20 mM appeared to be an issue, the initial concentration of the DMSO stock was changed to 10 mM or 5 mM.
In vitro enzymatic reactions were used for evaluating compounds intrinsic activity against BRAF, CRAF and ARAF. For BRAF and CRAF, 0.375 nM of purified GST-tagged kinases (cat #B4062-10UG and cat #R1656-10UG respectively from Millipore Sigma) were incubated with 75 nM of kinase-dead MEK1 substrate (cat #40075; BPS Bioscience) in the presence of 10 μM of Ultrapure ATP (cat #V9102; Promega; part V915A) with and without the test compound in a buffer containing 50 mM HEPES pH 7.5, 10 mM MgCl2, 1 mM EDTA, 0.01% Brij-35 and 2 mM DTT. Separate reactions were performed with the MEK1 substrate and ATP as a blank control. ARAF, kinase reactions were rigorously the same with the exception that kinase concentration was raised to 3.75 nM (cat #1768-0000-1; Reaction Biology).
For compound treatment, 5 μL/well of test substance solution are placed in a 384-well proxyplate (Perkin Elmer) and mixed with 2× concentrated kinase reactions. The dilution series is selected so that nine concentrations cover a range from 100 nM to 0.01 nM. […] The final concentration of DMSO in the assay is set at 0.05%.
ARAF kinase reactions were carried out for a total of 2 hours at 30° C. and then stopped by addition of EDTA at a final concentration of 40 mM. Reactions were then detected using the AlphaLISA® SureFire® Ultra™ p-MEK ½ (Ser218/222) (PerkinElmer) kit. Reactions were performed with 5 μL of kinase reaction according to the manufacturer's specifications in 384-well proxyplates (Perkin Elmer) followed by overnight incubation of the reactions at room temperature in a humidified chamber. After completion of the detection reactions, the signals were recorded on a Synergy Neo2 plate reader (Biotek) equipped with AlphaLISA® filters. The effect of each compound dilution on the pMEK signal generated by ARAF reactions was expressed in % inhibition and calculated as follows. An internal 100% inhibition control (average of luminescence in kinase reactions comprising kinase dead MEK1 substrate alone) was included in each plate to measure of pMEK background and was subtracted from each data point. The average of DMSO (vehicle) controls (set as 0% inhibition) was also established and used to calculate % inhibition:
IC50 values were obtained by plotting the kinase inhibition values and fitting the dose-activity curves using a log(agonist) versus response−variable slope (four parameters) function using either GraphPadPrism (V7.0) or Dotmatics Screening Ultra platform. Standards included in the ARAF kinase assay were Belvarafenib (MedChem Express cat #HY-109080; CAS #1446113-23-0), LXH254 (MedChem Express cat #HY-112089; CAS #1800398-38-2) and BGB283 (cat #HY-18957; CAS #1446090-79-4).

BRAF = biological target: T2, BRAF (Homo sapiens, UniProt P15056); experiment: BRAF kinase activity assay (ADP-Glo); format: biochemical; settings: Table 3
T2 construct: GST; purchased Millipore Sigma B4062-10UG
How it was run: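 GST-tagged BRAF (0.375 nM) was reacted with 75 nM kinase-dead MEK1 and 10 μM ATP for 2 h at 30 °C in HEPES pH 7.5 buffer with MgCl2, EDTA, Brij-35 and DTT. Compounds were tested at nine concentrations from 100 nM to 0.01 nM with 0.05% DMSO final. ADP-Glo luminescence gave % inhibition, and IC50 came from a four-parameter fit.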

T2 sequence (P15056 whole entry): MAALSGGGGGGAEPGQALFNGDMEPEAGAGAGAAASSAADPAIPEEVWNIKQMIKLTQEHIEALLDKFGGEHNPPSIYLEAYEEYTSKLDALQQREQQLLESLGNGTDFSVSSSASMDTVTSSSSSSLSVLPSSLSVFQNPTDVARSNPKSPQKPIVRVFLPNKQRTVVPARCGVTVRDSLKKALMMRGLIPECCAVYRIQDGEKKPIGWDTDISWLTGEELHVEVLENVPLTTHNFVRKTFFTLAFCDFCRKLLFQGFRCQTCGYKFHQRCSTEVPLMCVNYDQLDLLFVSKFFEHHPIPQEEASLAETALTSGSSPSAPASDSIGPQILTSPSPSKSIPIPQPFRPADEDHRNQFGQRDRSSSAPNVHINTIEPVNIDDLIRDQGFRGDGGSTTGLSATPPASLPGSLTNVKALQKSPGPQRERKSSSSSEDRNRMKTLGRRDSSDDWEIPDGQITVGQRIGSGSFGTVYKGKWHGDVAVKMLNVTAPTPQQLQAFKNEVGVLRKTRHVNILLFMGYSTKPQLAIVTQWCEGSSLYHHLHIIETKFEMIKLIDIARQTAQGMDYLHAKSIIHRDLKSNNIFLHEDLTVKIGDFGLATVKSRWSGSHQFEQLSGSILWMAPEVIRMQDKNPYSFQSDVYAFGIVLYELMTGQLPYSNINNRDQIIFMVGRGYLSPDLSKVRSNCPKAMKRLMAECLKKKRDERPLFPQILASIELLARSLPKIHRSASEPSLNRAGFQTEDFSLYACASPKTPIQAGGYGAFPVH

Row | SMILES | IC50 (ARAF) [nM] | IC50 (BRAF) [nM]
1 | Cc1ccc2c(Nc3cccc(Cl)c3F)nccc2c1NC(=O)c1csc2c(N)ncnc12 [Belvarafenib, reference compound] | > 20 | –
2 | Nc1cccc2c1ncn2-c1ncc2ncnc(Nc3c(F)ccc(NS(=O)(=O)c4cccc(Cl)c4Cl)c3F)c2n1 [Example 80] | – | < 1
3 | Cc1c(F)cccc1S(=O)(=O)Nc1ccc(F)c(Nc2ncnc3cnc(-n4cc(C(=O)N(C)Cc5ccncc5)c5ccccc54)nc23)c1F [Example 98] | 10 to 20 | < 1
4 | COc1ccc(S(=O)(=O)Nc2ccc(F)c(Nc3ncnc4cnc(-n5cnc6c(N)cccc65)nc34)c2F)c(C)c1Cl [Example 112] | > 20 | > 10
5 | Cc1c(F)cccc1S(=O)(=O)Nc1ccc(F)c(Nc2ncnc3cnc(-n4cnc5c(-c6cccnc6)cccc54)nc23)c1F [Example 114] | < 10 | 1 to 10
6 | O=S(=O)(Nc1ccc(F)c(Nc2ncnc3cnc(-n4cnc5c(N6CCC7(CCCO7)CC6)cccc54)nc23)c1F)c1cccc(Cl)c1Cl [Example 129] | 10 to 20 | > 10
